The record followed here is PubChem BioAssay AID1421 (Emory University Molecular Libraries Screening Center, 2008).

Activity calls are given as the source filed them. The rule behind the calls is not given here.

The test has as its target Prostaglandin E2 receptor EP2 subtype (Homo sapiens) (UniProt P43116). Description: EP2 receptor modulators, dose response, cell-based, human EP2, PGE2 EC50 shift (AID 1421). The conditions noted are these: EP2-expressing cells, PGE2 EC50 shift by compound; for PGE2 EC50 with compound: measured here: PGE2 EC50 at 6.7 uM compound.

Sequence of Prostaglandin E2 receptor EP2 subtype (Homo sapiens) (P43116 whole entry, looked up): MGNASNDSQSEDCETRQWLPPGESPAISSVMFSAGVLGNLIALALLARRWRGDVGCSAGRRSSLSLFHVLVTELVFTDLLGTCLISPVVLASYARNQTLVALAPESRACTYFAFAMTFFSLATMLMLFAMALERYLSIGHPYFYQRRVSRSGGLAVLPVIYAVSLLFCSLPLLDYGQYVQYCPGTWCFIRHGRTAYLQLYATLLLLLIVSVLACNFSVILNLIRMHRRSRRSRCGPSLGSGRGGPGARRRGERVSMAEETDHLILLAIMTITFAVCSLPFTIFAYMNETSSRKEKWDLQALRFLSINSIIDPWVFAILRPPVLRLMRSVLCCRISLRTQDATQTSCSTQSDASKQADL

As to `Cc1sc(NC(=O)Cc2ccc3c(c2)OCO3)nc1-c1ccc2c(c1)CCN2C(=O)c1cccc(F)c1`, the PGE2 EC50 with compound turned out to be 0.97 nM.

As to `COC(=O)C1C(c2ccccc2)C(C(=O)OCc2ccco2)C1c1ccccc1` (stereo unspecified), the PGE2 EC50 with compound worked out at 2.61 nM.

As to `CCc1ccccc1NC(=S)N(Cc1ccco1)C(C)c1cccs1` (stereo unspecified), the PGE2 EC50 with compound worked out at 0.9 nM.

With `CSc1nnc(-c2ccc(F)cc2)o1`, the PGE2 EC50 with compound was determined as 1.71 nM.

Consider `CCOP(=O)(OCC)c1nc(-c2ccc(C)cc2)oc1NCc1ccccc1`, for which the PGE2 EC50 with compound turned out to be 0.83 nM.

Turning to `C=CCCC1(C)C(=O)N(c2ccccc2)c2ccccc21` (stereo unspecified), the PGE2 EC50 with compound came to 1.2 nM.

`CCc1nc(N2CCCCC2)c2oc3ccccc3c2n1`: the result was active and the PGE2 EC50 with compound came to 0.8 nM.

Take `COc1cccc(C2=NN(C(=O)c3cccs3)C(O)(C(F)(F)F)C2)c1` (stereo unspecified): the PGE2 EC50 with compound came to 1.44 nM.

`O=C(CC(Sc1ccccc1)c1cccs1)c1ccco1` (stereo unspecified): the PGE2 EC50 with compound was determined as 0.88 nM.

For `COc1cccc2[nH]c3c(N4CCCCC4)ncnc3c12`, the PGE2 EC50 with compound is 0.6 nM.

`Clc1ccc(-c2nn3c(-c4ccccc4)nnc3s2)cc1`: the PGE2 EC50 with compound is 0.93 nM.

`CCOC(=O)Nc1sc2c(c1C(=O)OCC)CCC2`: the PGE2 EC50 with compound turned out to be 0.84 nM.

On to `CSc1nc(Sc2ccccc2Cl)c2ccccc2n1`, for which the PGE2 EC50 with compound stood at 0.7 nM.

On to `CCCOc1ccc(/C=N/Nc2ccc(C(=O)O)cc2)c(OCCC)c1`, for which the PGE2 EC50 with compound stood at 0.87 nM.

Regarding `COc1ccc(-c2cc(-c3ccccc3)nc(N3CCCC3)n2)cc1OC`, the result was active and the PGE2 EC50 with compound amounted to 1.12 nM.

For the compound `COc1ccc2c(-c3ccccc3)cc(N3CCOCC3)nc2c1`, the PGE2 EC50 with compound stood at 0.74 nM.

As for `C=CCSc1nc2ccccc2c(=O)n1Cc1ccccc1`, the PGE2 EC50 with compound was determined as 0.72 nM.

For the compound `CCOC(=O)c1c(NC(=O)c2cccnc2)sc(C)c1C`, the PGE2 EC50 with compound came to 1.25 nM.

Consider `Cc1nc2c(c(C)nn2-c2ccccc2)c(C)c1Cl`, for which the result was active and the PGE2 EC50 with compound worked out at 0.69 nM.

Regarding `CCOC(=O)c1ccc2nc(C(F)(F)F)[nH]c(=O)c2c1`, the PGE2 EC50 with compound worked out at 1.19 nM.

Turning to `COC(=O)c1sccc1NC(=O)c1cccc(OC)c1`, the PGE2 EC50 with compound was determined as 1.42 nM.

Regarding `Cc1cc(Br)c2nc3c(c(C(=O)O)c2c1)CCCCC3`, the PGE2 EC50 with compound is 2.78 nM.

Regarding `CCOC(=O)Cc1csc(NC(=O)c2cc(=O)c3ccccc3o2)n1`, the PGE2 EC50 with compound is 1.36 nM.

Consider `CCOC(=O)C1CCCN(C(=O)c2ccc(C)cc2O)C1` (stereo unspecified), for which the PGE2 EC50 with compound came out at 1.44 nM.

Turning to `Cc1ccc(C(=O)c2coc3ccc(OCC(=O)O)cc23)cc1`, the PGE2 EC50 with compound is 2.78 nM.

Consider `O=C(O)c1cc(C(=O)O)cc(N2C(=O)c3ccccc3C2=O)c1`, for which the PGE2 EC50 with compound came out at 0.83 nM.

With `O=C(c1ccccc1O)N1N=C(c2ccccc2)CC1(O)C(F)(F)F` (stereo unspecified), the PGE2 EC50 with compound is 1.48 nM.

Regarding `COc1ccc(-c2cc(C(F)(F)F)nc(N3CCOCC3)n2)cc1OC`, the outcome was active and the PGE2 EC50 with compound worked out at 1.53 nM.

Consider `O=C1C2C(c3ccccc3)C=CC(c3ccccc3)C2C(=O)N1c1ccncc1` (stereo unspecified), for which the PGE2 EC50 with compound came out at 0.65 nM.

As for `Cc1ccc(C(=O)O)cc1NC(=S)NC(=O)c1ccc(-c2ccccc2)cc1`, the PGE2 EC50 with compound was 0.83 nM.

Regarding `CCOC(=O)c1c(NC(=O)COC(=O)Cn2c(C)nc3ccccc32)sc2c1CCCC2`, the PGE2 EC50 with compound is 1.02 nM.

In the case of `Cn1c(=O)c(NCCc2ccccc2)c2c3c(cccc31)C(=O)c1ccccc1-2`, the PGE2 EC50 with compound turned out to be 0.31 nM.

In the case of `Cc1cccc(NCc2nc3ccccc3n2Cc2ccccc2)c1`, the PGE2 EC50 with compound worked out at 1.13 nM.

Turning to `CCOC(=O)c1c(NC(=O)CSc2nnc(N)s2)sc(C)c1-c1ccc(C)cc1`, the PGE2 EC50 with compound is 0.48 nM.

As to `C=CCOc1c(Br)cc(/C=N/n2c(CC)n[nH]c2=S)cc1Br`, the PGE2 EC50 with compound was 0.81 nM.

On to `Cc1sc(NC(=O)c2cccs2)c(C(=O)OC(C)C)c1C`, for which the PGE2 EC50 with compound amounted to 2.6 nM.

Regarding `C=C(C)Cn1c(C)cc(C)c(S(=O)(=O)c2ccc(C)cc2)c1=O`, the PGE2 EC50 with compound was found to be 1.04 nM.

For the compound `O=C(c1ccc(Cl)cc1)c1oc2ccccc2c1CS(=O)(=O)c1ccccc1`, the PGE2 EC50 with compound was found to be 2.88 nM.

On to `CCn1c(=NC(=O)c2ccc(S(=O)(=O)N(C)C)cc2)sc2cccc(OC)c21`, for which the PGE2 EC50 with compound was determined as 1.17 nM.

`Cc1ccc(/C=C/c2nc3ccccc3c(=O)n2CCc2ccccc2)cc1`: the PGE2 EC50 with compound turned out to be 1.15 nM.

On to `Clc1ccc(Cl)c(Nc2ccnc(SCc3ccccc3)n2)c1`, for which the PGE2 EC50 with compound was 0.64 nM.

For the compound `Cc1ccc(-c2nn(-c3ccccc3)cc2CN(Cc2ccccc2)C(=O)c2ccco2)o1`, the PGE2 EC50 with compound was 0.7 nM.

In the case of `CSc1ncnc2sc(C)c(C)c12`, the PGE2 EC50 with compound is 1.22 nM.

`COc1ccc(-c2cc(C(F)(F)F)n3nc(C(=O)N(C)Cc4ccccc4)cc3n2)cc1OC`: the PGE2 EC50 with compound came to 1.03 nM.

Turning to `CCOC(=O)c1c(NC(=O)CN2CCCCC2)sc(C)c1C`, the result was active and the PGE2 EC50 with compound was determined as 0.89 nM.

On to `COc1ccc(C(=O)NCCCN2CCOCC2)cc1OC`, for which the PGE2 EC50 with compound is 0.99 nM.

Take `CO/N=C/C(=N\Nc1ccccc1)C(=O)c1ccccc1`: the PGE2 EC50 with compound was 0.59 nM.

Take `COc1cc(-c2nc(-c3cccc(C(F)(F)F)c3)no2)cc(OC)c1OC`: the outcome was active and the PGE2 EC50 with compound amounted to 0.89 nM.

As to `COc1ccc(C(=O)c2ccccc2)c(O)c1`, the PGE2 EC50 with compound turned out to be 0.92 nM.

In the case of `CCOc1ccc(NC(=O)CSc2ncnc3c2sc2ccccc23)cc1`, the PGE2 EC50 with compound came to 2.67 nM.

As for `Cc1sc(NC(=O)CN2CCOCC2)c(C(=O)c2ccccc2)c1C`, the PGE2 EC50 with compound was 1.18 nM.

For the compound `O=C(CSc1ncnc2c1oc1ccccc12)Nc1ccccc1F`, the PGE2 EC50 with compound stood at 1.86 nM.

With `CCOC(=O)C1=C(C)N(C)C(C)=C(C(=O)OCC)C1c1ccsc1`, the PGE2 EC50 with compound came out at 0.79 nM.

For the compound `Cc1ccccc1Cn1c(Cc2ccccc2)nc2ccccc21`, the PGE2 EC50 with compound worked out at 2.76 nM.

Take `C=CCn1c(CCc2cc(C(C)(C)C)c(O)c(C(C)(C)C)c2)n[nH]c1=S`: the PGE2 EC50 with compound worked out at 1.14 nM.

With `COc1ccc(OC)c(C(=O)c2coc3ccc(OCC(=O)O)cc23)c1`, the PGE2 EC50 with compound stood at 0.98 nM.

As for `CCN(CC)c1nc(C#N)nc(N(CC)CC)n1`, the PGE2 EC50 with compound was found to be 0.95 nM.

Regarding `Cc1noc(C)c1COC(=O)C(c1ccccc1)c1ccccc1`, the PGE2 EC50 with compound came out at 1.27 nM.

In the case of `Cc1ccc2nc(-c3ccncc3)cc(-c3ccccc3)c2c1`, the PGE2 EC50 with compound is 0.31 nM.

Turning to `Cc1ccccc1S(=O)(=O)c1c(C)cc(C)n(C(C)C)c1=O`, the PGE2 EC50 with compound came out at 0.83 nM.

Turning to `O=C(NCc1ccco1)C(c1cccs1)N(C(=O)Cc1cccs1)c1ccccc1` (stereo unspecified), the PGE2 EC50 with compound worked out at 1.49 nM.

As for `COc1ccc(OC)c(C2=Nn3c(nnc3-c3ccco3)SC2)c1`, the PGE2 EC50 with compound worked out at 0.93 nM.

Regarding `Fc1ccc(Oc2nc(-c3ccccc3)nnc2C(F)(F)F)cc1`, the result was active and the PGE2 EC50 with compound is 0.66 nM.

For the compound `CCOC(=O)CC(=O)CSc1nc(-c2ccc3c(c2)OCO3)cc(C(F)(F)F)c1C#N`, the PGE2 EC50 with compound amounted to 1.24 nM.

Turning to `CC(=O)OCC(=O)[C@@]12OC(C)(C)O[C@@H]1C[C@H]1[C@H]3CC=C4C[C@@H](O)CC[C@]4(C)[C@@H]3CC[C@@]12C`, the PGE2 EC50 with compound is 0.97 nM.

As for `C=CCn1c(=O)c(C(=O)NCCc2ccccc2)c(O)c2ccccc21`, the PGE2 EC50 with compound came out at 2.43 nM.

As to `O=C(CSc1nnc(COc2ccccc2)n1-c1ccccc1)c1ccccc1`, the PGE2 EC50 with compound came to 1.19 nM.

For the compound `O=C(CN1CCCCCCC1)Nc1ccc(Cl)cc1Cl`, the PGE2 EC50 with compound was 1.11 nM.

As for `c1ccc2c(-c3nc(C4CCCCC4)no3)cc(-c3ccncc3)nc2c1`, the PGE2 EC50 with compound was 0.34 nM.

With `N#CCSc1nc2c(c(C3CC=CCC3)c1C#N)CCC2` (stereo unspecified), the PGE2 EC50 with compound was 1.45 nM.

As for `CC(C)N(CCNC(=O)c1oc(=O)c2ccccc2c1-c1ccccc1)Cc1ccco1`, the PGE2 EC50 with compound is 1.6 nM.

In the case of `CC(C)NC(=O)NC(=O)CSc1nnc(COc2ccccc2F)n1C(C)C1CC2CCC1C2` (stereo unspecified), the result was active and the PGE2 EC50 with compound stood at 1.06 nM.

For the compound `Cc1ccn2c(Nc3ccccc3C)c(-c3ccccn3)nc2c1`, the PGE2 EC50 with compound amounted to 0.73 nM.

For `CCOCC(=O)Nc1cc(C(F)(F)F)ccc1Oc1cccc(Br)c1`, the PGE2 EC50 with compound amounted to 0.49 nM.

Take `C=CCN1C(=O)N(/C=C/C)c2cccc3cccc1c23`: the PGE2 EC50 with compound is 2.79 nM.

Take `S=c1nc[nH]c2c1[nH]c1ccccc12`: the PGE2 EC50 with compound came out at 1.29 nM.

With `CCN(CC)P(=O)(Nc1ccccc1Br)c1ccc(N(C)C)cc1NC(=O)c1ccco1` (stereo unspecified), the PGE2 EC50 with compound was 1.19 nM.

`C=CCc1cc(C=C2C(=O)N(C)C(=O)N(C)C2=O)cc(OCC)c1OCc1ccccc1`: the PGE2 EC50 with compound was 0.94 nM.

Consider `CCn1c(-c2ccccc2)c(C(=O)CCl)c2ccccc21`, for which the PGE2 EC50 with compound is 1 nM.

As for `CSc1nnc2c3ccccc3c3ccccc3c2n1`, the PGE2 EC50 with compound turned out to be 1 nM.

In the case of `CC(C)OC(=O)c1c(NC(=O)CCn2nnc3ccccc32)sc2c1CCCC2`, the result was active and the PGE2 EC50 with compound stood at 1 nM.

For the compound `Cc1ccccc1OCc1nc2ccccc2c(=O)n1/N=C/c1ccco1`, the PGE2 EC50 with compound stood at 1.02 nM.

Consider `Fc1ccccc1Nc1nc2c(s1)CCc1ccccc1-2`, for which the PGE2 EC50 with compound came to 1.03 nM.

On to `COc1ccc(OC)c(-c2cnc(OC(C)(C)C)nc2OC(C)(C)C)c1`, for which the PGE2 EC50 with compound amounted to 1.35 nM.

As for `C=CCn1c(=S)[nH]c2sccc2c1=O`, the PGE2 EC50 with compound was 1.53 nM.

Regarding `Cn1c(=O)c(NC2CCCCC2)c2c3c(cccc31)C(=O)c1ccccc1-2`, the outcome was active and the PGE2 EC50 with compound was determined as 0.55 nM.

For the compound `CCc1ccc2nc(-c3cccc(C)c3)nc(SCC(=O)NCC3CCCO3)c2c1` (stereo unspecified), the PGE2 EC50 with compound amounted to 2.64 nM.

Turning to `CCn1c(=NC(=O)c2ccc(S(=O)(=O)N3CCOCC3)cc2)sc2cccc(OC)c21`, the PGE2 EC50 with compound worked out at 0.91 nM.

Regarding `Cc1sc(NC(=O)c2ccccc2F)c(CN2CCCCC2)c1C`, the result was active and the PGE2 EC50 with compound was determined as 1.09 nM.

Regarding `C#CCn1c(S(=O)(=O)Cc2ccc(F)cc2)nc(-c2ccccc2)c1-c1ccccc1`, the PGE2 EC50 with compound is 0.95 nM.
